Each compound was assayed against T1, Aromatase (Homo sapiens, UniProt P11511).
T1 sequence (P11511 whole entry): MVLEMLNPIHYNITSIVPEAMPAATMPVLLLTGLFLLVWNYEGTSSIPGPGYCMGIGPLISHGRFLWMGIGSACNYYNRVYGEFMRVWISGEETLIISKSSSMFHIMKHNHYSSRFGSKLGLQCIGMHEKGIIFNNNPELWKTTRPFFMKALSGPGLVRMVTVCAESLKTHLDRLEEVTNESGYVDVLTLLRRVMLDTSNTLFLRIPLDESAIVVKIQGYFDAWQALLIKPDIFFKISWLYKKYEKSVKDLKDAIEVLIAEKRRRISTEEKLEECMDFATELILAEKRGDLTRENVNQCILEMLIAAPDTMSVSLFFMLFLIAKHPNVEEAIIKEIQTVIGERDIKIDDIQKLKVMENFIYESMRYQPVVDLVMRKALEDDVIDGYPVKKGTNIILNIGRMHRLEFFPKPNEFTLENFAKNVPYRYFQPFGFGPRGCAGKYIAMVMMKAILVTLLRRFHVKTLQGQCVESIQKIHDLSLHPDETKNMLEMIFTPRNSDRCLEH
Description: Inhibition of human placental Cytochrome P450 19A1

SMILES	Ki [µM]
C[C@]12CC[C@H]3[C@@H](CCC4=CC(=O)CC[C@@]43C[C@@H]3CO3)[C@@H]1CCC2=O	0.753
C[C@]12CC[C@H]3[C@@H](CCC4=CC(=O)CC[C@@]43C[C@H]3CO3)[C@@H]1CCC2=O	0.086
C[C@]12CC[C@H]3[C@@H](CCC4=CC(=O)CC[C@@]43C[C@H]3CS3)[C@@H]1CCC2=O	0.022
C[C@]12CC[C@H]3[C@@H](CCC4=CC(=O)CC[C@@]43C[C@@H]3CS3)[C@@H]1CCC2=O	0.206
